Data from patent US20070105820A1 (priority 2005, published 2007).

system: Nav1.4 and 1.5; type: cell-based, rat; conditions: not given

For `NC1=N[C@H](O)[C@H]2[C@H]3O[C@]4(O)O[C@@H]([C@@H](O)[C@@]2(N1)[C@@H]4O)[C@]3(O)CO` [TTX, tetrodotoxin], the “block of [14C] Guanidine influx by TTX” value was “partially blocked by TTX (Nav1.5”.

target: NaV1.8 (Homo sapiens, UniProt Q9Y5Y9); type: cell-based; conditions: not given
Sequence (Q9Y5Y9 whole entry, looked up): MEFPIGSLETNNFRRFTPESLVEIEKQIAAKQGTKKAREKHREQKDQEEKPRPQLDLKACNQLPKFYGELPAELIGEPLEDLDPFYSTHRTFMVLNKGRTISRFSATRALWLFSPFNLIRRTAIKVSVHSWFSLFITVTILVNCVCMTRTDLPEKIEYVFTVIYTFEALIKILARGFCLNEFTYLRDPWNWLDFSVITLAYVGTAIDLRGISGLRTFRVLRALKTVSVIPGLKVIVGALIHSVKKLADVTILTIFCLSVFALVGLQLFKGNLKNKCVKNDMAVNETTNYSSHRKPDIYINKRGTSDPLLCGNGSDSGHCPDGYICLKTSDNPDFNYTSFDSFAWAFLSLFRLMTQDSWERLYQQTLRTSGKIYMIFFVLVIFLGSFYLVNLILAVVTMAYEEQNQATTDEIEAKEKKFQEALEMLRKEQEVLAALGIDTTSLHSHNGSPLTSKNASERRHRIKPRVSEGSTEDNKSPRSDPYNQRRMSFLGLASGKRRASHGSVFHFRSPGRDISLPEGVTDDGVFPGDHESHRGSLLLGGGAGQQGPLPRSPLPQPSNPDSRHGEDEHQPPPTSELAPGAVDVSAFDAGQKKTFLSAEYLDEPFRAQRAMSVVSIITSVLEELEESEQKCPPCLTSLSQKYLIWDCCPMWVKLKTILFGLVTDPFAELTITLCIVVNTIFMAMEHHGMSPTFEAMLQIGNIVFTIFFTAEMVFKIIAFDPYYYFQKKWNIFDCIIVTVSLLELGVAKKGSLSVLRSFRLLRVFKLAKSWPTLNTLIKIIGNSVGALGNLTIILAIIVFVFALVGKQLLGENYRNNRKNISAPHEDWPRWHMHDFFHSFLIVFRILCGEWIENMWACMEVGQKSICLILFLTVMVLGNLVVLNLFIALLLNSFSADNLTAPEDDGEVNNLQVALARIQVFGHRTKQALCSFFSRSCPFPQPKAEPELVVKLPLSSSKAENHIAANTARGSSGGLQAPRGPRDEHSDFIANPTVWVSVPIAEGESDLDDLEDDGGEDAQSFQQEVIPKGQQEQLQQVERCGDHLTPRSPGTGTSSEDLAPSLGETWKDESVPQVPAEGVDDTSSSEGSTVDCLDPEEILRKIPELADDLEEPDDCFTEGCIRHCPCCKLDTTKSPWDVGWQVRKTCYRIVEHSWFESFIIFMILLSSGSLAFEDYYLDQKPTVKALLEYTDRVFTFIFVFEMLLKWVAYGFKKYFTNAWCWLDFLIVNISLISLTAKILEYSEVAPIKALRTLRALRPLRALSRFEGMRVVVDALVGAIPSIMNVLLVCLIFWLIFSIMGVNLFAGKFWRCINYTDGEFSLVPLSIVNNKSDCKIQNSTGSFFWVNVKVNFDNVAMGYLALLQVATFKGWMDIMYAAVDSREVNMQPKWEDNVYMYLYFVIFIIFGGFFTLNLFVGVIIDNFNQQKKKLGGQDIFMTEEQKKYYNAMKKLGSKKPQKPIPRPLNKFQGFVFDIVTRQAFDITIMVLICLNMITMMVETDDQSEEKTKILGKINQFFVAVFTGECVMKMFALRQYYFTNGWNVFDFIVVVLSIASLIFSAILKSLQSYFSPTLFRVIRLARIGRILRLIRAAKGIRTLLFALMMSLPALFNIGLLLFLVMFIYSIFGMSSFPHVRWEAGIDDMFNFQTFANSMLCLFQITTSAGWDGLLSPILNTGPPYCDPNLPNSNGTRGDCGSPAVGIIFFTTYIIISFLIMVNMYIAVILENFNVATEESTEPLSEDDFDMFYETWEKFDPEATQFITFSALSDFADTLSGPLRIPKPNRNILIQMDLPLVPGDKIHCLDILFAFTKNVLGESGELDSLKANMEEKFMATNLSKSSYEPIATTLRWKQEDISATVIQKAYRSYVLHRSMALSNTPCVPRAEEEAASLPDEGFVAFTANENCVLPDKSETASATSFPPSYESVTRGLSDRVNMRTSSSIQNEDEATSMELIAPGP

With `NC1=N[C@H](O)[C@H]2[C@H]3O[C@]4(O)O[C@@H]([C@@H](O)[C@@]2(N1)[C@@H]4O)[C@]3(O)CO` [TTX, tetrodotoxin] the “block of [14C] Guanidine influx by TTX” value was “TTX partially blocked influx”.

system: not given; conditions: not given

Compared with `O=C(CC1(O)C(=O)N(CCc2ccc(Cl)cc2)c2ccccc21)c1ccco1` (centres unmarked), `Cc1ccc2c(c1)C(O)(CC(=O)c1ccco1)C(=O)N2Cc1ccc(Cl)cc1` (centres unmarked) is higher in melting point: 128 to 132 °C for the first, 183 to 185 °C for the second.

First: CCCCCN1C(=O)C(c2ccc3c(c2)OCO3)c2c(Cl)ccc(Cl)c21 (centres unmarked)
Second: CCCCCN1C(=O)C(O)(c2ccc3c(c2)OCO3)c2c(Cl)ccc(Cl)c21 (centres unmarked)
The melting point of the first is higher: 84 to 86 °C for the first, 82 to 84 °C for the second.

First: CCCCCN1C(=O)C(c2ccc3c(c2)OCO3)c2cccc(F)c21 (centres unmarked)
Second: CCCCCN1C(=O)C(c2ccc3c(c2)OCO3)c2cc(C)cc(C)c21 (centres unmarked)
The melting point of the first is lower: 95 to 97 °C for the first, 111 to 114 °C for the second.

First: O=C1C(c2ccc3c(c2)OCO3)c2ccccc2N1Cc1ccc(Cl)cc1 (centres unmarked)
Second: O=C1C(c2ccc3c(c2)OCO3)c2ccccc2N1CCC1CC1 (centres unmarked)
The melting point of the first is higher: 161 to 163 °C for the first, 87 to 89 °C for the second.

Compared with `CCCCCN1C(=O)C(c2cc3c(cc2O)OCO3)c2ccccc21` (centres unmarked), `CCCCCN1C(=O)C(CO)(c2cc3c(cc2O)OCO3)c2ccccc21` (centres unmarked) is higher in melting point: 101 to 103 °C for the first, 125 to 127 °C for the second.

First: CCCCCN1C(=O)C(c2ccc3c(c2)OCO3)(c2cc3c(cc2O)OCO3)c2ccccc21 (centres unmarked)
Second: O=C1N(Cc2cc3c(cc2Cl)OCO3)c2ccccc2C1(O)c1ccc2c(c1)OCO2 (centres unmarked)
The melting point of the first is lower: 75 to 76 °C for the first, 153 to 155 °C for the second.

First: CCCCCN1C(=O)C(NC(=O)OC(C)(C)C)c2ccccc21 (centres unmarked)
Second: CCCCCN1C(=O)C(N)(CC(=O)c2cccs2)c2ccccc21 (centres unmarked)
The melting point of the first is lower: 145 to 147 °C for the first, 167 to 169 °C for the second.

First: O=C(CC1(O)C(=O)N(Cc2ccc3c(c2)OCO3)c2ccccc21)c1ccco1 (centres unmarked)
Second: O=C(CC1(O)C(=O)N(Cc2ccc3c(c2)OCO3)c2ccccc21)c1cccs1 (centres unmarked)
The melting point of the first is lower: 175 to 177 °C for the first, 186 to 187 °C for the second.

Compared with `O=C1N(CC2CC2)c2ccccc2C1(O)c1ccc2c(c1)OCO2` (centres unmarked), `O=C1N(CCC2CC2)c2ccccc2C1(O)c1ccc2c(c1)OCO2` (centres unmarked) is lower in melting point: 142 to 145 °C for the first, 110 to 112 °C for the second.

Compared with `CC(c1ccccc1)N1C(=O)C(O)(c2ccc3c(c2)OCO3)c2ccccc21` (centres unmarked), `O=C1N(Cc2ccccc2I)c2ccccc2C1(O)c1ccc2c(c1)OCO2` (centres unmarked) is lower in melting point: 148 to 150 °C for the first, 130 to 132 °C for the second.

Compared with `O=C1N(Cc2ccc(C(F)(F)F)o2)c2ccc(F)cc2C1(CO)c1cc2c(cc1O)OCO2` (centres unmarked), `O=C1N(Cc2ccc(Cl)cc2)c2ccc(F)cc2C1(O)c1ccc2c(c1)OCO2` (centres unmarked) is higher in melting point: 92 to 95 °C for the first, 145 to 147 °C for the second.

Compared with `O=C1N(Cc2ccc(Cl)cc2)c2ccc(OC(F)(F)F)cc2C1(O)c1ccc2c(c1)OCO2` (centres unmarked), `O=C1N(Cc2ccc(Cl)cc2)c2ccc(Br)cc2C1(O)c1ccc2c(c1)OCO2` (centres unmarked) is higher in melting point: 138 to 140 °C for the first, 179 to 180 °C for the second.

First: O=C1N(Cc2ccc(-n3cccc3)cc2)c2ccccc2C1(O)c1ccc2c(c1)OCO2 (centres unmarked)
Second: O=C1N(Cc2cccc3ccccc23)c2ccccc2C1(O)c1ccc2c(c1)OCO2 (centres unmarked)
The melting point of the first is higher: 195 to 198 °C for the first, 93 to 95 °C for the second.

First: CCCCCN1C(=O)C(O)(c2ccc3c(c2)OCO3)c2cccc(-c3ccc(F)cc3)c21 (centres unmarked)
Second: CCCCCN1C(=O)C(O)(c2ccc3c(c2)OCO3)c2cccc(F)c21 (centres unmarked)
The melting point of the first is higher: 149 to 151 °C for the first, 102 to 104 °C for the second.

First: O=C1N(CCCC(F)(F)F)c2ccccc2C1(O)c1ccc2c(c1)OCO2 (centres unmarked)
Second: O=C1N(CCCCCCl)c2ccccc2C1(O)c1ccc2c(c1)OCO2 (centres unmarked)
The melting point of the first is lower: 119 to 121 °C for the first, 131 to 132 °C for the second.

Compared with `O=C1N(Cc2ccc(Cl)cc2)c2ccccc2C1(O)c1cc(OCc2ccccc2)ccc1O` (centres unmarked), `O=C1N(Cc2ccc(Cl)cc2)c2ccccc2C1(O)c1ccc2ncsc2c1` (centres unmarked) is higher in melting point: 172 to 175 °C for the first, 185 to 187 °C for the second.

First: O=C1Nc2c(-c3ccc4c(c3)OCO4)cccc2C1(O)c1ccc2c(c1)OCO2 (centres unmarked)
Second: O=C1N(Cc2ccc(Cl)s2)c2ccccc2C1(O)c1ccc2c(c1)OCO2 (centres unmarked)
The melting point of the first is lower: 112 to 115 °C for the first, 164 to 165 °C for the second.

Compared with `O=C(CC1(O)C(=O)N(Cc2ccc(Cl)cc2)c2ccccc21)c1ccc(F)cc1` (centres unmarked), `O=C1N(Cc2ccc(Cl)cc2)c2ccccc2C1(O)C#Cc1ccc(F)cc1` (centres unmarked) is lower in melting point: 156 to 160 °C for the first, 153 to 154 °C for the second.

First: CCCCCN1C(=O)C(O)(c2ccc3c(c2)OCO3)c2cc(C)cc(C)c21 (centres unmarked)
Second: CCCCCN1C(=O)C(O)(c2ccc3c(c2)OCO3)c2ccc(Cl)cc21 (centres unmarked)
The melting point of the first is higher: 120 to 121 °C for the first, 103 to 105 °C for the second.

First: CCCCC(C)N1C(=O)C(O)(c2ccc3c(c2)OCO3)c2ccccc21 (centres unmarked)
Second: CC(C)CCN1C(=O)C(O)(c2ccc3c(c2)OCO3)c2ccccc21 (centres unmarked)
The melting point of the first is higher: 152 to 154 °C for the first, 129 to 131 °C for the second.

First: O=C1N(Cc2ccc(Cl)cc2)c2ccccc2C1(O)CC1OCCO1 (centres unmarked)
Second: O=C1N(Cc2ccc(Cl)cc2)c2ccccc2C1(O)c1ccc2c(c1)OCCCO2 (centres unmarked)
The melting point of the first is lower: 166 to 169 °C for the first, 188 to 190 °C for the second.

First: O=C(c1ccc(Cl)cc1)N1C(=O)C(O)(c2ccccc2)c2ccccc21 (centres unmarked)
Second: O=C1c2ccccc2CC1C1(O)C(=O)N(Cc2ccc(Cl)cc2)c2ccccc21 (centres unmarked)
The melting point of the first is lower: 141 to 143 °C for the first, 154 to 157 °C for the second.

First: O=C1N(Cc2cccs2)c2ccccc2C1(O)c1ccc2c(c1)OCO2 (centres unmarked)
Second: COc1ccccc1CN1C(=O)C(O)(c2ccc3c(c2)OCO3)c2ccccc21 (centres unmarked)
The melting point of the first is lower: 141 to 142 °C for the first, 148 to 150 °C for the second.

`O=C1N(Cc2cccc(C(F)(F)F)c2)c2ccccc2C1(O)c1ccc2c(c1)OCO2` (centres unmarked) and `O=C1N(Cc2ccc(Cl)c(C(F)(F)F)c2)c2ccccc2C1(O)c1ccc2c(c1)OCO2` (centres unmarked) fall in the same range of melting point: 133 to 135 °C for the first, 133 to 135 °C for the second.

First: COc1ccc2c(c1)C(O)(c1ccc3c(c1)OCO3)C(=O)N2Cc1ccc(F)cc1 (centres unmarked)
Second: COc1ccc(CN2C(=O)C(O)(c3ccc4c(c3)OC(F)(F)O4)c3ccccc32)cc1 (centres unmarked)
The melting point of the first is higher: 127 to 129 °C for the first, 88 to 90 °C for the second.

First: CCCCCCN1C(=O)C(O)(c2ccc3c(c2)OCO3)c2ccccc21 (centres unmarked)
Second: CCCCCN1C(=O)C(O)(c2ccc3c(c2)OCO3)c2c(Cl)cccc21 (centres unmarked)
The melting point of the first is lower: 88 to 90 °C for the first, 140 to 142 °C for the second.

First: O=C1N(Cc2cccc3cccnc23)c2ccccc2C1(O)c1ccc2c(c1)OCO2 (centres unmarked)
Second: O=C1N(Cc2ccc(Cl)cc2)c2ccccc2C1(O)c1ccc2c(c1)OC(F)(F)O2 (centres unmarked)
The melting point of the first is higher: 187 to 189 °C for the first, 150 to 152 °C for the second.

First: CCCCCC1(O)C(=O)N(c2ccc3c(c2)OCO3)c2ccccc21 (centres unmarked)
Second: CCCCCN1C(=O)C(O)(c2cc3c(cc2CO)OCO3)c2ccccc21 (centres unmarked)
The melting point of the first is lower: 88 to 90 °C for the first, 120 to 122 °C for the second.

Compared with `CCCCCN1C(=O)C(O)(c2ccc3c(c2)OCO3)c2cccc(C(F)(F)F)c21` (centres unmarked), `CCCCCN1C(=O)C(O)(c2ccc3ocnc3c2)c2ccccc21` (centres unmarked) is higher in melting point: 115 to 117 °C for the first, 189 to 191 °C for the second.

First: COc1ccc(C2(O)C(=O)N(Cc3ccc(Cl)cc3)c3ccccc32)cc1OC (centres unmarked)
Second: COc1ccc(C2(O)C(=O)N(Cc3ccc(Cl)cc3)c3ccccc32)cn1 (centres unmarked)
The melting point of the first is lower: 155 to 158 °C for the first, 182 to 184 °C for the second.

`O=C1N(Cc2ccc(Cl)cc2)c2ccccc2C1(O)c1cncnc1` (centres unmarked) gave a melting point of 155 to 157 °C.

With `O=C(CC1(O)C(=O)N(Cc2ccc(Cl)cc2)c2ccccc21)c1ccc[nH]1` (centres unmarked) the melting point was 202 °C (dec.).
In the case of `O=C(CC1(O)C(=O)N(Cc2ccc(Cl)cc2)c2ccccc21)c1cc2ccccc2o1` (centres unmarked), the melting point is reported as 185 °C (dec.).
In the case of `O=C1N(Cc2ccccn2)c2cccc(Br)c2C1(O)c1cc2c(cc1O)OCC2` (centres unmarked), the melting point is reported as > 225 °C.
For `O=C(CC1(O)C(=O)N(Cc2ccc(Cl)cc2)c2ccccc21)c1ccccn1` (centres unmarked), the melting point was 185 °C (dec.).
With `O=C(CC1(O)C(=O)N(c2ccc(F)cc2)c2ccccc21)c1ccco1` (centres unmarked) the melting point was 185 °C (dec.).
For `O=C1N(Cc2ccc3c(c2)OCO3)c2ccccc2C1(O)c1ccc2ccoc2c1` (centres unmarked), the melting point was > 200 °C.
In the case of `O=C1N(Cc2ccc(Cl)cc2)c2ccccc2C1(O)c1ccc2ccoc2c1` (centres unmarked), the melting point is reported as > 200 °C (dec.).

system: peripheral nerve injury; conditions: intravenous; concentrations that do not affect general behaviour and motor function; cited from earlier work

For `CCN(CC)CC(=O)Nc1c(C)cccc1C` [lidocaine], the “effect on ectopic activity in the injured nerve” value is given as “suppress the ectopic activity”.

In the case of `CCN(CC)CC(=O)Nc1c(C)cccc1C` [lidocaine], the “effect on tactile allodynia” value is given as “reverse the tactile allodynia”.

target: Nav1.2 (Rattus norvegicus, UniProt P04775); conditions: not given
Sequence (P04775 whole entry, looked up): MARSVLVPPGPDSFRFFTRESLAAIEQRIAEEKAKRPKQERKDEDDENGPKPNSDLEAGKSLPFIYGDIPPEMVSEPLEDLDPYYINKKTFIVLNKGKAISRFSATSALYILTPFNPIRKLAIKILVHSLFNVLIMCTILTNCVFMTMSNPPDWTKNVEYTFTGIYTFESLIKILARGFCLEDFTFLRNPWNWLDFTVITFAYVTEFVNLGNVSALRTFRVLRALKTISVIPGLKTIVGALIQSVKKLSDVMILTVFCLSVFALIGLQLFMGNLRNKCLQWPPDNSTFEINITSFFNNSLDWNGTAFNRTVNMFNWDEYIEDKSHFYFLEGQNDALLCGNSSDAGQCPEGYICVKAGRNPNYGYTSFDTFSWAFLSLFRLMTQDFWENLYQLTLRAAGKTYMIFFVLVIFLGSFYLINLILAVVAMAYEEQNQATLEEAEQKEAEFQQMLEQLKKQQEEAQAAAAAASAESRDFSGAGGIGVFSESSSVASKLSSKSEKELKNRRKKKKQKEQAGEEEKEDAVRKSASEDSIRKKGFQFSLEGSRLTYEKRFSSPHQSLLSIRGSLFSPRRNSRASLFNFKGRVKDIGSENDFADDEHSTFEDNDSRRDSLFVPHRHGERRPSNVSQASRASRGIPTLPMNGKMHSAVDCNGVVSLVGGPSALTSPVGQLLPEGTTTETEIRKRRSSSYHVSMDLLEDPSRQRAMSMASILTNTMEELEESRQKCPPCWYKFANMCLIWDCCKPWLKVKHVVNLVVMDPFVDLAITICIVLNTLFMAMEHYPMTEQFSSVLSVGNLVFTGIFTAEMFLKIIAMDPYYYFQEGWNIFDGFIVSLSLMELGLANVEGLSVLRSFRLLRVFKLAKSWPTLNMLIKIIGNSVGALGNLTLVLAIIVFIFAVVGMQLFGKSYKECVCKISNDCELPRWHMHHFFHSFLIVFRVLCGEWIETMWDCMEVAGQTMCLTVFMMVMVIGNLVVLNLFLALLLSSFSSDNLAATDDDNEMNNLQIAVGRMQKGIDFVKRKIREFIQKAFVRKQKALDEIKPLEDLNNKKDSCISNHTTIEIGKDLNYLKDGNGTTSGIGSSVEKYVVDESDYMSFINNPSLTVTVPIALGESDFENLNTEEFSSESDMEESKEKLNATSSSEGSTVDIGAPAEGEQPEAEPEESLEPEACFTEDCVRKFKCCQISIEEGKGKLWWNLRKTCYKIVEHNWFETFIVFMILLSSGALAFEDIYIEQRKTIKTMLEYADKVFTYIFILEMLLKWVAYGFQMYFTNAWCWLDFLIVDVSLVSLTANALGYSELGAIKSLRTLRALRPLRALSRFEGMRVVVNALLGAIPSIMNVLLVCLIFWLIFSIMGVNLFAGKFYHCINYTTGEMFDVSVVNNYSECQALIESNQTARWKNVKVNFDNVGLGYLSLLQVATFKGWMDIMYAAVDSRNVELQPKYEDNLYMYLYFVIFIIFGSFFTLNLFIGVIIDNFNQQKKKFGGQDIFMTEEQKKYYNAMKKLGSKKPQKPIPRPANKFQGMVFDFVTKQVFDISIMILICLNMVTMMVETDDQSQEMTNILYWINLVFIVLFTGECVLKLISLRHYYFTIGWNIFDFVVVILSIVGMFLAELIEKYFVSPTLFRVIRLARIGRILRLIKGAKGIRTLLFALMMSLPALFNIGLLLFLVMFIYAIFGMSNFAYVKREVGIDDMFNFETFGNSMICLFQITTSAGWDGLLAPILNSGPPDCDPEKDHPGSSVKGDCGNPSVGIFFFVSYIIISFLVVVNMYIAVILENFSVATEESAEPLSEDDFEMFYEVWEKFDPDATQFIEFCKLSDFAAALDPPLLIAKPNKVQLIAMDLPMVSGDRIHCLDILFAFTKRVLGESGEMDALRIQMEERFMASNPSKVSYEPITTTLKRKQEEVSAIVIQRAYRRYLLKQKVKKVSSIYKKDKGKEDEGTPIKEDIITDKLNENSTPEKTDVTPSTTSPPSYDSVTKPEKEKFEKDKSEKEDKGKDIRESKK

For `NC1=N[C@H](O)[C@H]2[C@H]3O[C@]4(O)O[C@@H]([C@@H](O)[C@@]2(N1)[C@@H]4O)[C@]3(O)CO` [TTX, tetrodotoxin], the “block of [14C] Guanidine influx by TTX” value was “Guanidine influx was completely”.

system: Nav1.4; type: cell-based, Chinese Hamster; conditions: not given

With `NC1=N[C@H](O)[C@H]2[C@H]3O[C@]4(O)O[C@@H]([C@@H](O)[C@@]2(N1)[C@@H]4O)[C@]3(O)CO` [TTX, tetrodotoxin] the “block of [14C] Guanidine influx by TTX” value was “Guanidine influx was completely”.
